Read-outs that look alike come from different tables or passages of the source.
Key:
Experiment in all cases: KINOMEscan assay (Eurofins DiscoverX)
Type in all cases: binding
[1] = molecular target: T1, kinome (kinase panel) (Homo sapiens, UniProt P49759); settings: CLK1; 1000 nM; read-out: Percent Control
T1 construct: purchased Eurofins DiscoverX

[2] = molecular target: T2, kinome (kinase panel) (Homo sapiens, UniProt P53778); settings: p38-gamma (Entrez MAPK12); 1000 nM; read-out: Percent Control
T2 construct: purchased Eurofins DiscoverX

[3] = molecular target: T3, kinome (kinase panel) (Homo sapiens, UniProt P07949); settings: RET; 1000 nM; read-out: Percent Control
T3 construct: purchased Eurofins DiscoverX

[4] = molecular target: T4, kinome (kinase panel) (Homo sapiens, UniProt Q5VT25); settings: MRCKA (Entrez CDC42BPA); 1000 nM; read-out: Percent Control
T4 construct: purchased Eurofins DiscoverX

[5] = molecular target: T5, kinome (kinase panel) (Homo sapiens, UniProt P07949, M918T); settings: read-out: Percent Control
T5 construct: purchased Eurofins DiscoverX

[6] = molecular target: T6, kinome (kinase panel) (Homo sapiens, UniProt P04049); settings: RAF1; 1000 nM; read-out: Percent Control
T6 construct: purchased Eurofins DiscoverX

[7] = molecular target: T7, kinome (kinase panel) (Homo sapiens, UniProt Q9BZL6); settings: PRKD2; 1000 nM; read-out: Percent Control
T7 construct: purchased Eurofins DiscoverX

[8] = molecular target: T8, kinome (kinase panel) (Homo sapiens, UniProt O15146); settings: MUSK; 1000 nM; read-out: Percent Control
T8 construct: purchased Eurofins DiscoverX

[9] = molecular target: T9, kinome (kinase panel) (Homo sapiens, UniProt Q9Y463); settings: DYRK1B; 1000 nM; read-out: Percent Control
T9 construct: purchased Eurofins DiscoverX

[10] = molecular target: T10, kinome (kinase panel) (Homo sapiens, UniProt P45984); settings: JNK2 (Entrez MAPK9); 1000 nM; read-out: Percent Control
T10 construct: purchased Eurofins DiscoverX

[11] = molecular target: T11, kinome (kinase panel) (Homo sapiens, UniProt P10721, D816H); settings: […]; 1000 nM; read-out: Percent Control
T11 construct: purchased Eurofins DiscoverX

[12] = molecular target: T12, kinome (kinase panel) (Homo sapiens, UniProt P27037); settings: ACVR2A; 1000 nM; read-out: Percent Control
T12 construct: purchased Eurofins DiscoverX

[13] = molecular target: T13, kinome (kinase panel) (Homo sapiens, UniProt O75716); settings: STK16; 1000 nM; read-out: Percent Control
T13 construct: purchased Eurofins DiscoverX

[14] = molecular target: T14, kinome (kinase panel) (Homo sapiens, UniProt P17612); settings: PKAC-alpha (Entrez PRKACA); 1000 nM; read-out: Percent Control
T14 construct: purchased Eurofins DiscoverX

[15] = molecular target: T15, kinome (kinase panel) (Homo sapiens, UniProt Q9UK32); settings: 1000 nM, read-out: Percent Control
T15 construct: purchased Eurofins DiscoverX

[16] = molecular target: T16, kinome (kinase panel) (Homo sapiens, UniProt Q8N4C8); settings: MINK (Entrez MINK1); 1000 nM; read-out: Percent Control
T16 construct: purchased Eurofins DiscoverX

[17] = molecular target: T17, kinome (kinase panel) (Homo sapiens, UniProt P08069); settings: IGF1R; 1000 nM; read-out: Percent Control
T17 construct: purchased Eurofins DiscoverX

[18] = molecular target: T18, kinome (kinase panel) (Homo sapiens, UniProt Q9H0K1); settings: SIK2; 1000 nM; read-out: Percent Control
T18 construct: purchased Eurofins DiscoverX

[19] = molecular target: T19, kinome (kinase panel) (Homo sapiens, UniProt P11309); settings: PIM1; 1000 nM; read-out: Percent Control
T19 construct: purchased Eurofins DiscoverX

[20] = molecular target: T20, kinome (kinase panel) (Homo sapiens, UniProt Q99640); settings: PKMYT1; 1000 nM; read-out: Percent Control
T20 construct: purchased Eurofins DiscoverX

[21] = molecular target: T21, kinome (kinase panel) (Homo sapiens, UniProt O75676); settings: 1000 nM, read-out: Percent Control
T21 construct: purchased Eurofins DiscoverX

[22] = molecular target: T22, kinome (kinase panel) (Homo sapiens, UniProt Q9H3Y6); settings: SRMS; 1000 nM; read-out: Percent Control
T22 construct: purchased Eurofins DiscoverX

[23] = molecular target: T23, kinome (kinase panel) (Homo sapiens, UniProt Q15759); settings: p38-beta (Entrez MAPK11); 1000 nM; read-out: Percent Control
T23 construct: purchased Eurofins DiscoverX

[24] = molecular target: T24, kinome (kinase panel) (Homo sapiens, UniProt P50613); settings: CDK7; 1000 nM; read-out: Percent Control
T24 construct: purchased Eurofins DiscoverX

[25] = molecular target: T25, kinome (kinase panel) (Homo sapiens, UniProt Q6PHR2); settings: ULK3; 1000 nM; read-out: Percent Control
T25 construct: purchased Eurofins DiscoverX

[26] = molecular target: T26, kinome (kinase panel) (Homo sapiens, UniProt P42345); settings: MTOR; 1000 nM; read-out: Percent Control
T26 construct: purchased Eurofins DiscoverX

[27] = molecular target: T27, kinome (kinase panel) (Homo sapiens, UniProt P07333); settings: 1000 nM, read-out: Percent Control
T27 construct: purchased Eurofins DiscoverX

[28] = molecular target: T28, kinome (kinase panel) (Homo sapiens, UniProt Q9BYP7); settings: WNK3; 1000 nM; read-out: Percent Control
T28 construct: purchased Eurofins DiscoverX

[29] = molecular target: T29, kinome (kinase panel) (Homo sapiens, UniProt Q13554); settings: CAMK2B; 1000 nM; read-out: Percent Control
T29 construct: purchased Eurofins DiscoverX

[30] = molecular target: T30, kinome (kinase panel) (Homo sapiens, UniProt Q8TF76); settings: HASPIN (Entrez GSG2); 1000 nM; read-out: Percent Control
T30 construct: purchased Eurofins DiscoverX

[31] = molecular target: T31, kinome (kinase panel) (Homo sapiens, UniProt O96017); settings: CHEK2; 1000 nM; read-out: Percent Control
T31 construct: purchased Eurofins DiscoverX

T15 sequence (Q9UK32 whole entry): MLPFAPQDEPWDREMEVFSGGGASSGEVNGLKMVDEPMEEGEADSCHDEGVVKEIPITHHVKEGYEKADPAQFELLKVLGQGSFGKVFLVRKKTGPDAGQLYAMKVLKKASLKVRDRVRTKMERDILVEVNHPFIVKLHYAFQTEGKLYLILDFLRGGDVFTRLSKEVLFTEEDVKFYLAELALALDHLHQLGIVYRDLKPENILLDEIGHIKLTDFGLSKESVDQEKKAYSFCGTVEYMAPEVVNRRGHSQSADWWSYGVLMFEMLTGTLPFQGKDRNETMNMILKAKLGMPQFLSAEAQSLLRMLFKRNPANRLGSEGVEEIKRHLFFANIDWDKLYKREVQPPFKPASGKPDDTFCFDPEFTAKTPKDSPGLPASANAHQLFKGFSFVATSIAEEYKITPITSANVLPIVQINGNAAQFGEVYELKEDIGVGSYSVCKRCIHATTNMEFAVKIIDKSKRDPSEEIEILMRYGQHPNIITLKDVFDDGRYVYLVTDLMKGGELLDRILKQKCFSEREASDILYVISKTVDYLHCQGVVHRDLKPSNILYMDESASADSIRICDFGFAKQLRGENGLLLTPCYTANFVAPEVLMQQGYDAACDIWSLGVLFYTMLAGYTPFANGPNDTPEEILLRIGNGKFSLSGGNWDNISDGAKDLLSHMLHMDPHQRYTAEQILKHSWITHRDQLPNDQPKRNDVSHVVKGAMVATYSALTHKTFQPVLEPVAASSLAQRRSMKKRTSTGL
T21 sequence (O75676 whole entry): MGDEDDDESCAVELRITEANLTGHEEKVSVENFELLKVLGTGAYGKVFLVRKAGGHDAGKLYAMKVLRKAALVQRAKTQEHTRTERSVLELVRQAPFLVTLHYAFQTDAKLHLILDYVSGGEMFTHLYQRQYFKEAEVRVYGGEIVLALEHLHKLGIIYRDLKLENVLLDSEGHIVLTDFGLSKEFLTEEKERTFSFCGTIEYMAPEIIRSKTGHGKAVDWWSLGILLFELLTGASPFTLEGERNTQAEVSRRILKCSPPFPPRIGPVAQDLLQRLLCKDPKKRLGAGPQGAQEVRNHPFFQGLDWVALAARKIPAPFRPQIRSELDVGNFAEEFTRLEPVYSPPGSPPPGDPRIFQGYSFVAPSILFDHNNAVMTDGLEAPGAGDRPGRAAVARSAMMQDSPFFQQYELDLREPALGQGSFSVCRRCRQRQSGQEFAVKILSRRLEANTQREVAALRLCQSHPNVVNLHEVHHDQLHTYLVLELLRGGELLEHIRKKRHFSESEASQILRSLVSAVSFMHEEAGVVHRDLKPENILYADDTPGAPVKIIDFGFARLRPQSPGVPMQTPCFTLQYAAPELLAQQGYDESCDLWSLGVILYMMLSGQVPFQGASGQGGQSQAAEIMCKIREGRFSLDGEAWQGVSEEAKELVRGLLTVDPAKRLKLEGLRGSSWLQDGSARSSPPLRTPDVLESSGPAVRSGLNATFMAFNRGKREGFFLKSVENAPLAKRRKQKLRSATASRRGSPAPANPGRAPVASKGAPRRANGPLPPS
T27 sequence (P07333 20-972): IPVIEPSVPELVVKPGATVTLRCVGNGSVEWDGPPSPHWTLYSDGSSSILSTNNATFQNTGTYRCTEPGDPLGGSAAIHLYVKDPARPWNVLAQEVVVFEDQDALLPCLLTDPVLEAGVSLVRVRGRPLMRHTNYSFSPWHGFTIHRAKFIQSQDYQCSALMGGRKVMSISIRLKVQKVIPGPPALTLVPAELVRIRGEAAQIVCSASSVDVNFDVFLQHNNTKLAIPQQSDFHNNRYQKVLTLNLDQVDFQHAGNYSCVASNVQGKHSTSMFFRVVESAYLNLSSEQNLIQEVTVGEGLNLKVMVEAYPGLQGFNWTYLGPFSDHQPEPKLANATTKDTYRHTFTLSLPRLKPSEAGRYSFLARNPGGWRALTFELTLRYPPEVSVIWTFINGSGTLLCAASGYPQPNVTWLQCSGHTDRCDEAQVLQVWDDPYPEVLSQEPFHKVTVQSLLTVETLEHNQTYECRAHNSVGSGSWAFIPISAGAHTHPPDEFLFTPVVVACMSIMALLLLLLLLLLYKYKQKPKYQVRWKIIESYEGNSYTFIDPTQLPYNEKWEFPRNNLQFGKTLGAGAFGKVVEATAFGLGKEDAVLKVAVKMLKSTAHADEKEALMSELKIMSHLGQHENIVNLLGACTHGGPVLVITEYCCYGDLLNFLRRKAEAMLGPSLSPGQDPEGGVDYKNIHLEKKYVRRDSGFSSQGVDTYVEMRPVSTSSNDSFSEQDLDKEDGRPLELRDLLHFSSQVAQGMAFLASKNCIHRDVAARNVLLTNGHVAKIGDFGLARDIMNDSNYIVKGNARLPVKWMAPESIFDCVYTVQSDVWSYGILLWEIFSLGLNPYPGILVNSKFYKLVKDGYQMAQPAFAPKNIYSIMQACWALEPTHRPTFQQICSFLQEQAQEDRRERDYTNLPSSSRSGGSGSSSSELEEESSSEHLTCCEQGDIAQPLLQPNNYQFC
T5 sequence (P07949 29-1114 M918T): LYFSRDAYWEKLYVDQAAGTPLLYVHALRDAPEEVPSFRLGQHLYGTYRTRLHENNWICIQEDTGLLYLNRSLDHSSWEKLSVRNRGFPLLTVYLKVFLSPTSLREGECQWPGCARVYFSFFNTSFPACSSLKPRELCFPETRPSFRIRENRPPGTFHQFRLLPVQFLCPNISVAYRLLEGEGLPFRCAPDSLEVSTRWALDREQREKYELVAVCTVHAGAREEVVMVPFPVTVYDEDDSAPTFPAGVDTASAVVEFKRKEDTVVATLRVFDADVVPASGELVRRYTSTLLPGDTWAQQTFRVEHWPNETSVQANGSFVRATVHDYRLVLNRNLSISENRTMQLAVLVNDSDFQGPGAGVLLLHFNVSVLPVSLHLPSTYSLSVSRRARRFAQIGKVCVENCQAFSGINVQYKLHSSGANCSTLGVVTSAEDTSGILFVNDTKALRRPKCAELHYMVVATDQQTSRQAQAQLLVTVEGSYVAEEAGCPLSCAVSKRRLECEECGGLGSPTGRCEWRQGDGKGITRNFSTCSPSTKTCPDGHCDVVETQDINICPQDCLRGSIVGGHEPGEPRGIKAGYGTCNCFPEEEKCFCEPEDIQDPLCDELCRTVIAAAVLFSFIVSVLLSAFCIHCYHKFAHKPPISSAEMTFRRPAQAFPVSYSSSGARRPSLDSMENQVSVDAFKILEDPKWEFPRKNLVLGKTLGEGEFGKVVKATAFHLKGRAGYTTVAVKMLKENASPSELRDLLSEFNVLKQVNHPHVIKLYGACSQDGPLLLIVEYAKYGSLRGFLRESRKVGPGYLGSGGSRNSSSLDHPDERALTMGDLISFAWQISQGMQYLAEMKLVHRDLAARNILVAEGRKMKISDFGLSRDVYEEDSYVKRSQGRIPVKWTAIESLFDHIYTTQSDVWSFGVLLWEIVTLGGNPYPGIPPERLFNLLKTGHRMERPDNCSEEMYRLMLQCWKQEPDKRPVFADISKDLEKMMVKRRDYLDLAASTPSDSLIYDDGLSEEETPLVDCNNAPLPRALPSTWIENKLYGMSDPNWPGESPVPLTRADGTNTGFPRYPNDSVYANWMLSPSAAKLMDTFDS
T30 sequence (Q8TF76 whole entry): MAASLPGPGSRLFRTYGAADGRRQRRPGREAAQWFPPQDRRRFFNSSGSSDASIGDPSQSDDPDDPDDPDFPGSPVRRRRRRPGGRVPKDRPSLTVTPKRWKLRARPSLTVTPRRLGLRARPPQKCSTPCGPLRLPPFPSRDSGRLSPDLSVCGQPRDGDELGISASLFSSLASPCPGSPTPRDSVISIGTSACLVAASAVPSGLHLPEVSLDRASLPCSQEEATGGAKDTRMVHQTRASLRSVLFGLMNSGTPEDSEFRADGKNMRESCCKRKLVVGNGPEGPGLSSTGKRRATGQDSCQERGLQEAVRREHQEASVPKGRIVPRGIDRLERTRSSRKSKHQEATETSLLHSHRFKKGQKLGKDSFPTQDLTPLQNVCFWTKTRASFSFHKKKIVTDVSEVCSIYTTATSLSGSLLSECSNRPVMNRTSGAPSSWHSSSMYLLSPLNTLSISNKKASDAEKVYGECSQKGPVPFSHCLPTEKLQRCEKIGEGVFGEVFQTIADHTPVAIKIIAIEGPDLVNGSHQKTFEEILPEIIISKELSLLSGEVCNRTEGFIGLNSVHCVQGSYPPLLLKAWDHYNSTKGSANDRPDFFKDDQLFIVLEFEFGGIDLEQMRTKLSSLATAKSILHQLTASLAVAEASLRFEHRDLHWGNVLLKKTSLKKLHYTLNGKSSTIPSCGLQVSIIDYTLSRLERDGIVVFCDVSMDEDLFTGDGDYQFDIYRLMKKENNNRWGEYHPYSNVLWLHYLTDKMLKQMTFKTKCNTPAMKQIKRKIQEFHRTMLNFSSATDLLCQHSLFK
T6 sequence (P04049 whole entry): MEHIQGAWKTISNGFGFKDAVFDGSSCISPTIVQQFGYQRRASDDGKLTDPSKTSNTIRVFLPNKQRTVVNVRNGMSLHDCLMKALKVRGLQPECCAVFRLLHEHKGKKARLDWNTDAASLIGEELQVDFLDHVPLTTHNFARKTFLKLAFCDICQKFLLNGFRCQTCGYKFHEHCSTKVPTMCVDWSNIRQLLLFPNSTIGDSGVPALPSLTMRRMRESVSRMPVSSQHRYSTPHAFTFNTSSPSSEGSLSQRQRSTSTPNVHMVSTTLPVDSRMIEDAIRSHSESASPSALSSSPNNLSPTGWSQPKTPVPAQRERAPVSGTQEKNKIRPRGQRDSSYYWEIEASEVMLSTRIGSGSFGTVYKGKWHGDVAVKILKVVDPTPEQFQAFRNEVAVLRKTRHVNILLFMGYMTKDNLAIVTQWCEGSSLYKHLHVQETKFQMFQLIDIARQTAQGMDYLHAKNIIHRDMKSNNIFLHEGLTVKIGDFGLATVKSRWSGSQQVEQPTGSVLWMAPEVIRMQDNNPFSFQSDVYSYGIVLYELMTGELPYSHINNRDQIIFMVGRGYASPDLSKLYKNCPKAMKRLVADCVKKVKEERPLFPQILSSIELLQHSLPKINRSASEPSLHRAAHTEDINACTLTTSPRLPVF
T3 sequence (P07949 29-1114): as the sequence (P07949 29-1114 M918T) above, with T890M counted along it

## CN(C)C(=O)c1cc2cnc(Nc3ccc(-c4csc5c(=O)cc(N6CCOCC6)oc45)cc3)nc2n1C1CCCC1 [SRX3177]
[1]
  remaining binding at 1 µM: 100%
[2]
  remaining binding at 1 µM: 66%
[3]
  remaining binding at 1 µM: 100%
[4]
  remaining binding at 1 µM: 98%
[5]
  remaining binding at 1 µM: 100%
[6]
  remaining binding at 1 µM: 100%
[7]
  remaining binding at 1 µM: 100%
[8]
  remaining binding at 1 µM: 95%
[9]
  remaining binding at 1 µM: 56%
[10]
  remaining binding at 1 µM: 47%
[11]
  remaining binding at 1 µM: 28%
[12]
  remaining binding at 1 µM: 99%
[13]
  remaining binding at 1 µM: 28%
[14]
  remaining binding at 1 µM: 96%
[15]; RSK4(Kin.Dom.1-N-terminal) (RPS6KA6)
  remaining binding at 1 µM: 90%
[15]; RSK4(Kin.Dom.2-C-terminal) (RPS6KA6)
  remaining binding at 1 µM: 90%
[16]
  remaining binding at 1 µM: 77%
[17]
  remaining binding at 1 µM: 100%
[18]
  remaining binding at 1 µM: 58%
[19]
  remaining binding at 1 µM: 56%
[20]
  remaining binding at 1 µM: 88%
[21]; RPS6KA4(Kin.Dom.1-N-terminal)
  remaining binding at 1 µM: 100%
[21]; RPS6KA4(Kin.Dom.2-C-terminal)
  remaining binding at 1 µM: 55%
[22]
  remaining binding at 1 µM: 92%
[23]
  remaining binding at 1 µM: 100%
[24]
  remaining binding at 1 µM: 90%
[25]
  remaining binding at 1 µM: 51%
[26]
  remaining binding at 1 µM: 79%
[27]; CSF1R-autoinhibited
  remaining binding at 1 µM: 60%
[27]; CSF1R
  remaining binding at 1 µM: 100%
[28]
  remaining binding at 1 µM: 100%
[29]
  remaining binding at 1 µM: 82%
[30]
  remaining binding at 1 µM: 67%
[31]
  remaining binding at 1 µM: 94%
